In a melting point compilation (Tetko et al.; mined from patent text by program, amines drawn as free bases though some values may be those of a salt):

Work on `Fc1ccc(-n2ncnc2-c2ccncc2)cc1` yielded a melting point of 114 to 115 °C.
`NC(=O)c1nn(-c2ccc(S(N)(=O)=O)cc2)c2cc(-c3ccc(F)cc3)ccc12` gave a melting point of 314 to 315 °C.
For `CCOC(CC)c1ccc(Cl)c2nc3n(c12)CCCN3c1ccc(Cl)cc1Cl` (stereo unspecified), the melting point was 108 to 110 °C.
`COc1cc(COc2nn(-c3ccccc3)cc2/C=C/c2csc(CO)n2)ccc1OCc1nc(-c2ccc(CC(=O)O)cc2)oc1C` showed a melting point of 204 to 205 °C.
Work on `C=CCc1c(C)nc2c(OCc3ccccc3)cccn12` yielded a melting point of 90.5 to 91.5 °C.
Compound `CNC(=O)c1ccnc([N+](=O)[O-])c1` has a melting point of 131 to 133 °C.
For `CCOC(=O)Cc1c2ccccc2n2c(-c3ccccc3)nccc12`, the melting point was 59 to 62 °C.
With `O=C(O)c1nccc(-c2ccccc2)c1C(=O)O` the melting point was 146 to 148 °C.
For `CN(C)CCOc1cc2c(Nc3ccc(Cl)cc3Cl)c(C#N)cnc2cn1`, the melting point was 75 to 79 °C.
`Cc1nc(-n2cnn(Cc3ccc(F)cc3)c2=O)sc1-c1nn[nH]n1` gave a melting point of 136 to 139 °C.
With `COc1cc2ncnc(N3CCN(C(=O)Nc4ccc(CC(C)C)cc4)CC3)c2cc1OC` the melting point was 215 to 217 °C.
Compound `CCCCc1nn(-c2ccc([N+](=O)[O-])cc2C(F)(F)F)c(=O)n1Cc1ccc(-c2ccccc2S(N)(=O)=O)cc1` has a melting point of 218 to 220 °C.
Work on `COc1ccc(-c2cc(CN(C)C)c(=O)n(Cc3ccc(F)c(F)c3)n2)cc1F` yielded a melting point of 130 °C.
With `CC(=O)C1C(C)CC2C3CCC4CC(O)CCC4(C)C3C(=O)CC21C` (stereo unspecified) the melting point was 138 to 140 °C.
`N#Cc1nc(-c2cnn(-c3c(Cl)cc(C(F)(F)F)cc3Cl)c2Br)[nH]c1C#N` gave a melting point of 167 to 170 °C.
`CC(=O)Oc1cccc2sc(-c3ccc(C)cc3)nc12` gave a melting point of 110 to 113 °C.
`COc1ccc(COC(=O)N[C@@H](CC(N)=O)C(=O)N[C@@H](Cc2ccccc2)[C@H](O)C(=O)N2CCC[C@H]2C(=O)NC(C)(C)C)cc1` showed a melting point of 95 to 97 °C.
Compound `CSCC(C)NC(=O)c1c(I)cccc1C(=O)Nc1ccc(C2(c3ccc(Cl)cc3)CC2(F)F)cc1C` (stereo unspecified) has a melting point of 229 to 232 °C.
Compound `O=COC[C@@H]1C(=O)N[C@H]1SC(c1ccccc1)(c1ccccc1)c1ccccc1` (relative stereo) has a melting point of 143 to 144 °C.
`O=C(O)c1cc(C(F)(F)F)cc(Cl)c1-n1cnc(C(F)(F)C(F)(F)F)cc1=O` showed a melting point of 189 to 190 °C.
For `COc1ccc(-c2[nH]nc3c2C(=O)c2c(NC(N)=O)cccc2-3)cc1`, the melting point was 267 to 269 °C.
Compound `COc1ccc(-c2cc(=O)n(CC=Cc3ccc(Cl)cc3)nc2-c2ccc(OC)c(F)c2)cc1F` has a melting point of 72.5 to 74.9 °C.
In the case of `CCOC(=O)c1ccc2c3ccccc3n(Cc3ccccc3)c2c1C`, the melting point is reported as 79 to 80 °C.
Work on `Clc1ccc(C(c2ccccc2)c2ccccc2)cn1` yielded a melting point of 69.5 to 71 °C.
Compound `COc1ccc(-c2ccccc2)c2sc(-c3ncc[nH]3)nc12` has a melting point of 205 to 206 °C.
For `N#Cc1cccc(COc2ncc(F)c(NC(=O)NCc3ccccc3F)n2)c1`, the melting point was 177 to 178 °C.
For `Cc1ccc(-c2nc(N)ncc2-c2ccc(=O)n(C(C)C)n2)cc1`, the melting point was 224 °C.
For `Cc1ccc2nc(C3(c4ccc(S(N)(=O)=O)cc4)C=C(C(F)F)NN3)sc2c1` (stereo unspecified), the melting point was 235 to 236 °C.
Work on `CCCS(=O)(=O)c1nc2cc(-n3nc(C)n(C)c3=O)c(F)cc2s1` yielded a melting point of 196 to 198 °C.
In the case of `CC(=O)NNc1ccnc2c(NC(=O)c3c(Cl)cccc3Cl)ccc(C)c12`, the melting point is reported as 230 to 234 °C.
`CCOC(=O)C1CNc2cc(-c3ccccc3)ccc2O1` (stereo unspecified) gave a melting point of 141 to 145 °C.
For `CC(=O)CC(=O)c1ccccn1`, the melting point was 46 to 49 °C.
`C[C@@](O)(CO)COc1cccc(-c2noc3ccsc23)c1` gave a melting point of 97 to 98 °C.
Compound `O=C(c1nc(-c2ccc(F)cc2)c(-c2ccc(F)cc2)[nH]1)C(F)(F)F` has a melting point of 214 to 216 °C.
`CC(C)(C)OC(=O)N[C@@H](Cc1ccc(Cl)cc1)C(=O)NC1CCC(Nc2cccc3c2C(=O)c2ccccc2C3=O)CC1` (stereo partly specified) showed a melting point of 190 °C.
For `COc1cc(OC)nc(Oc2cccc(F)c2)n1`, the melting point was 45 °C.
Work on `c1cc(-n2cccc2)cc(-n2cnc3cc(-c4ccoc4)ccc32)c1` yielded a melting point of 144 to 145 °C.
`CCCOc1cc2c(c3c1OC(C)(C)C3)C(c1cccc(-c3ccncc3)c1)=NC(C)(C)C2` showed a melting point of 132 to 134 °C.
`CC(=NO)C(C)(C)NCC(Cn1ccnc1[N+](=O)[O-])ONC(C)(C)C(C)=NO` (stereo unspecified) showed a melting point of 170 to 171 °C.
With `Cc1c(C)c(N2CCN(C(=O)OC(C)(C)C)CC2)c(C)c2c1OC(C)(C)C2N1CCCCC1` (stereo unspecified) the melting point was 167 to 168 °C.
`CC(=O)OCC1OC(n2cnc(C(N)=O)c2Br)C(OC(C)=O)C1OC(C)=O` (stereo unspecified) showed a melting point of 133 to 135 °C.
`CCCCCCCCCCOC(=O)C1=C(C)OC(N)=C(C(=O)OCC)C1c1cccc([N+](=O)[O-])c1` (stereo unspecified) gave a melting point of 100 °C.
For `Cc1csn(-c2ccc(Cl)c(Cl)c2)c1=O`, the melting point was 160 to 161 °C.
`NS(=O)(=O)c1cc2c(s1)CCC(O)C2` (stereo unspecified) gave a melting point of 176 to 179 °C.
With `C#CCOc1ccc2c(C)cc(=O)oc2c1C(=O)C=Cc1cccnc1` the melting point was 203 to 205 °C.
`CC(c1nnnn1C)C(O)(c1ccc(F)cc1)c1ccc(F)cc1` (stereo unspecified) gave a melting point of 160 to 161 °C.
`O=C(O)CCC(=O)N1CCN(c2ccccn2)CC1` gave a melting point of 125 to 127 °C.
In the case of `Cc1cc(OCC(F)(F)F)c(Cl)cc1[N+](=O)[O-]`, the melting point is reported as 76 to 79 °C.
Work on `CS(=O)(=O)c1ccc(-c2cnn(-c3cccc(C(F)(F)F)c3)c(=O)c2-c2ccc(Cl)cc2)cc1` yielded a melting point of 103 to 105 °C.
With `COc1cc2c3ccc(OC)c(OC)c3n(Cc3ccc(C(F)(F)F)cc3)c2cc1OC` the melting point was 145 to 146 °C.
For `Cc1ccc(-c2ccc(C(=O)Nc3cc4ncc(CN5CCCC5)cc4cc3F)cc2)cc1`, the melting point was 202 to 204 °C.
Compound `COc1ccc2c(c1)c(CC(=O)N(O)C(C)C)c(C)n2C(=O)c1ccc(Cl)cc1` has a melting point of 198 to 199 °C.
In the case of `Clc1cncc(Oc2cccc(Cl)n2)c1`, the melting point is reported as 46 to 47 °C.
`COC(=O)c1cc(O)n(C(C)C)n1` showed a melting point of 162 to 163 °C.
`CC=CCn1c(C)c(C)c2cnnc(OCc3ccc(F)cc3)c21` showed a melting point of 93 to 103 °C.
`CCCCCNC(=O)n1nc(Oc2ncc(C(F)(F)F)cc2Cl)cc1C` gave a melting point of 142 to 144 °C.
Compound `N#CC1CN(C(=O)[C@H](NC(=O)c2c[nH]c3ncc(-c4ccccc4)nc23)C2CC2)C1` has a melting point of 200 to 202 °C.
In the case of `Cc1c(C(=O)O)sc2[nH]c(=O)c(=O)[nH]c12`, the melting point is reported as 289 to 294 °C.
Work on `C=CC1(c2ccccc2)OC(C(=O)OC)Oc2ccc(Cl)cc21` (stereo unspecified) yielded a melting point of 78 °C.
In the case of `CCOC(=O)NC(=S)Nc1nnc(-c2cc(C(C)(C)C)c(O)c(C(C)(C)C)c2)s1`, the melting point is reported as > 250 °C.
Work on `CC(C)(C)C(=O)Nc1cccc(-c2ccc(C3CCNC3=O)cc2F)n1` (stereo unspecified) yielded a melting point of 162 to 165 °C.
With `CC(C)(C)C(O)CN1CCC(CCC(=O)c2cc(Cl)c(N)[nH]c2=O)CC1` (stereo unspecified) the melting point was 211 °C.
Compound `COc1ccc(-c2cc(C(F)F)nn2-c2ccc(S(N)(=O)=O)cc2)cc1I` has a melting point of 135 to 137 °C.
With `CNc1nc(Nc2ccc(Cl)c(Cl)c2)ncc1N1CCNC1=O` the melting point was 271 °C.
For `O=C(CCCl)Nc1ccc2[nH]c3ccc(NC(=O)CCCl)cc3c(=O)c2c1`, the melting point was > 350 °C.
With `O=C(Nc1nccs1)/C(=C/C1CCCC1)c1ccc(Cl)c(Cl)c1` the melting point was 57 to 59 °C.
With `CC(Cc1ccc(F)cc1F)C(N)=O` (stereo unspecified) the melting point was 90 to 91 °C.
`COc1ccccc1O[C@@H]1CN(Cc2ccccc2)C[C@H]1O` (relative stereo) showed a melting point of 115 to 117 °C.
`CCOC(=O)c1cn(C)c2c(=O)c3cc(Cl)ccc3oc2c1=O` showed a melting point of 295 to 297 °C.
With `CCn1cc(C(=O)O)c(=O)c2c1SC(=NO)C2` the melting point was 332 to 334 °C.
With `O=c1[nH]ncc2[nH]c(-c3ccc(OC(F)F)c(OC4CC4)c3)c(COC3CCC3)c12` the melting point was 95 to 100 °C.
For `COc1ccc(C)cc1NC(=O)Nc1ccc(N2CCNCC2)cc1`, the melting point was 140 °C.
In the case of `COc1cc(/C=C/C(=O)Nc2ccccc2C(=O)O)ccc1OCCN1CCOCC1`, the melting point is reported as 195 to 201 °C.
`CCCCCNC(=O)[C@@H]1CCCN1C(=O)[C@H](C)NC(=O)OCc1ccccc1` gave a melting point of 102 to 104 °C.
Work on `CC(C)(CCBr)CC(=O)O` yielded a melting point of 53 to 55 °C.
`O=C(NCc1cccnc1)OCc1ccccc1` gave a melting point of 73.6 to 77.1 °C.
In the case of `Cc1cc(S(=O)(=O)N2c3ccc(Br)cc3-c3ccccc3C2C)ccc1O` (stereo unspecified), the melting point is reported as 193 to 195 °C.
For `CCS(=O)(=O)c1ccc(C(=O)C2C(=O)CCCC2=O)c(Cl)c1C1=NOC2OCCC12` (stereo unspecified), the melting point was 99 °C.
Work on `CCSC=C1SC(=O)N(CCCCSc2cccc3nccn23)C1=O` yielded a melting point of 159 to 160 °C.
`O=c1c2c(cnn1CC=Cc1ccccc1)C(Cc1ccccc1)NCCS2` (stereo unspecified) gave a melting point of 101 to 102 °C.
Compound `CCOC(=O)c1cc(-c2nccs2)[nH]c1C(CC1CCOCC1)c1ccc(S(=O)(=O)C2CC2)cc1` (stereo unspecified) has a melting point of 178 to 179 °C.
`O=C(O)C(Cc1ccc(OCc2ccccc2)cc1)c1ccccc1` (stereo unspecified) showed a melting point of 133 to 137 °C.
Compound `O=C(c1ccccc1Cl)N1Cc2c(-c3noc(C4CC4)n3)ncn2-c2ccccc21` has a melting point of 254 to 256 °C.
`N#Cc1cccnc1N1CCN(CC(=O)Nc2ccccc2[N+](=O)[O-])CC1` gave a melting point of 134 to 136 °C.
`O=C1c2cccc(Sc3ccccc3)c2C(=O)c2cccc(Nc3cccc([N+](=O)[O-])c3)c21` showed a melting point of 246 °C.
In the case of `CCCCCCCCCCCCCCCCNc1ccc(O)c2c1C(=O)c1c(N)ccc(N)c1C2=O`, the melting point is reported as 174 °C.
`CC(CC(F)(F)C(F)(F)C(F)(F)C(F)(F)C(F)(F)C(F)(F)CC(C)C(=O)O)C(=O)O` (stereo unspecified) gave a melting point of 150 to 151 °C.
`COC1=C(OC)C(=O)C2=C(CCC(CCOc3ccc4c(c3)OCO4)CC2)C1=O` gave a melting point of 75 to 78 °C.
`CC(C)c1cccc(C(C)C)c1NC(=O)CN1CCN(CCSc2nc3cccc(S(C)(=O)=O)c3o2)CC1` gave a melting point of 125 to 128 °C.
Work on `COC(=O)C1=C(C)NC(C#N)=C(C(=O)OC)C1c1cccc([N+](=O)[O-])c1` (stereo unspecified) yielded a melting point of 206 to 207 °C.
`O=C(O)COc1cccc2c1CCc1sc(Cc3ccccc3)nc1-2` showed a melting point of 146 to 149 °C.
For `COc1ccc(OCC2NCCS2)cc1` (stereo unspecified), the melting point was 54 to 55 °C.
For `CCn1ncc(C(=O)c2ccc(S(C)(=O)=O)c(Cl)c2Cl)c1O`, the melting point was 198 to 200 °C.
Work on `O=C=Nc1ccc(NCc2ccc(F)c(Cl)c2)c(C(F)(F)F)c1` yielded a melting point of 144 to 146 °C.
With `Cc1nn(C)c(NCC(C)(C)C)c1NCc1ccncc1` the melting point was 88 to 90 °C.
For `O=c1[nH]nc(-c2ccc(NN=C(c3ccc(O)cc3)c3ccc(O)cc3O)cc2)c2ccccc12`, the melting point was 150 to 160 °C.
